Data on six compounds can be found in ChEMBL document CHEMBL1136344, “Green tea catechins as a BACE1 (beta-secretase) inhibitor” (Bioorg Med Chem Lett, 2003).

The target of experiment [1] is T1, Beta-secretase 1 (Homo sapiens, UniProt P56817). In words: Inhibition of human Beta-secretase 1.
The target of experiment [2] is T1, Beta-secretase 1. Kind of experiment: Inhibitory activity against recombinant human Beta-secretase 1.

For orientation: IC50 means the point on the concentration scale where inhibition reaches its midpoint. Read a high IC50 as weaker potency. A word on the Ki: it is the equilibrium dissociation constant of an inhibitor or competing ligand from its target.

A value given as a limit tells only on which side of the number the result lay.

T1 sequence (P56817 whole entry): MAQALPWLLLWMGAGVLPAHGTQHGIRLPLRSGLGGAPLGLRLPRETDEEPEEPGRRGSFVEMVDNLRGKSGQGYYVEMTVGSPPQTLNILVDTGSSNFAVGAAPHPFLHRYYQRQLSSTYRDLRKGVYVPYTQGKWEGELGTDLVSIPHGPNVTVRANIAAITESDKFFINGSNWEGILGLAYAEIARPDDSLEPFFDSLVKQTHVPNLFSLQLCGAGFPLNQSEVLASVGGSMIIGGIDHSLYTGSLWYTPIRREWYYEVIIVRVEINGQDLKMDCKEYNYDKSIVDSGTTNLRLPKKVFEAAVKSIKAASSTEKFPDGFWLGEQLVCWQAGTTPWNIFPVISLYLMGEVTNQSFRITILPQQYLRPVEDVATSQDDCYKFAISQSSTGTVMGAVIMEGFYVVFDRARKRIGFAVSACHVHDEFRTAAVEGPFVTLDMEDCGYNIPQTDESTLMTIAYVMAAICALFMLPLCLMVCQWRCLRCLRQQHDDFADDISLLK

Turning to `Oc1cc(O)c2c(c1)O[C@H](c1cc(O)c(O)c(O)c1)[C@@H](O)C2` [GALLOCATECHIN], at Beta-secretase 1 [1], the IC50 worked out at 2.5 µM.

Compound `O=C(O[C@@H]1Cc2c(O)cc(O)cc2O[C@H]1c1ccc(O)c(O)c1)c1cc(O)c(O)c(O)c1` [(-)-CATECHINGALLATE] returned an IC50 at Beta-secretase 1 [1] of 6 µM.

`O=C(OC[C@@H]1O[C@H](OC(=O)c2cc(O)c(O)c(O)c2)[C@@H](OC(=O)c2cc(O)c(O)c(O)c2)[C@H](OC(=O)c2cc(O)c(O)c(O)c2)[C@H]1OC(=O)c1cc(O)c(O)c(O)c1)c1cc(O)c(O)c(O)c1` came in with an IC50 against Beta-secretase 1 [1] of more than 160 µM.

Turning to `O=C(O[C@H]1Cc2c(O)cc(O)cc2O[C@H]1c1ccc(O)c(O)c1)c1cc(O)c(O)c(O)c1`, the Ki at Beta-secretase 1 [2] was found to be 5.3 µM. The IC50 against Beta-secretase 1 [1] is 4.5 µM.

The compound `O=C(O[C@@H]1O[C@@H]2COC(=O)c3cc(O)c(O)c(O)c3-c3c(cc(O)c(O)c3O)C(=O)OO[C@H]([C@H]1O)[C@@H]2O)c1cc(O)c(O)c(O)c1` returned an IC50 against Beta-secretase 1 [1] of more than 160 µM.

`Oc1cc(O)c2c(c1)O[C@@H](c1cc(O)c(O)c(O)c1)[C@@H](O)C2` had a concentration for half-maximal inhibition (IC50) against Beta-secretase 1 [1] of 2.4 µM.
